The first assay concerns the target T1, FGFR1 (Homo sapiens, UniProt P11362).
T1 construct: purchased Upstate Company
In words: Inhibition of FGFR1 kinase (fluorescence polarization kinase assay). Format: biochemical. Particulars: Table 2, class symbols; read-out: FGFR1 IC50. As to the method: (§1) Inhibition activities of kinases of the inventive compounds (test compounds) prepared in the Examples were assessed and represented as IC50 values.
(§2) Kinases used in Test Examples 1 to 3 were purchased from Upstate Company.
(§3) 100 mM HEPES (pH 7.4), 25 mM MgCl2, 10 mM MnCl2 and 250 μM Na3VO4 were mixed to prepare a kinase buffer. Each of kinases to be measured was diluted to a concentration of 25˜300 ng per one reaction according to its activity with the kinase buffer. Also, each of the test compounds was serially diluted to a concentration starting from 100 nM up to 0.1 nM with the kinase buffer. 10 μl of the serially diluted solution of each of the test compounds and 10 μl of the diluted kinase were added to each well of a 96-well microplate, and the plate was incubated at room temperature for 10 mins. 10 μl of a substrate and 10 μl of ATP were successively added thereto to initiate a kinase reaction, and the resulting mixture was incubated at room temperature for 1 hour. The ATP was used in a form of a solution diluted to a concentration determined according to a kinase's Km value with distilled water. 10˜100 ng/mL poly(Glu, Tyr) 4:1 (Sigma) was used as the substrate. 10 μl of 6 mM EDTA was added to each well and stirred for 5 mins to terminate the kinase reaction. For a measurement of phosphorylation degree, 50 μl of a solution containing anti-phosphotyrosine antibody and fluorescein-labeled phosphopeptide was added to the reaction mixture, followed by incubating for 30 mins. The FP (fluorescence polarization) value of each well was determined with a Victor™ D fluorescence meter (Perkin Elmer Lifesciences).
(§4) IC50, the concentration at which 50% inhibition occurs, was evaluated based on the difference between the final concentration of the test cells and the initial concentration of the cells incubated in a well not-treated with the test compound which was regarded as 100%. IC50 values of the test compounds on the FGFR kinase were shown in Table 2, and those of the test compound obtained in Example 177 on various kinases, in Table 3.
A general note: Fluorescence polarisation rises when a labelled molecule tumbles more slowly, as on binding a larger partner.
T1 sequence (P11362 22-822, species assumed): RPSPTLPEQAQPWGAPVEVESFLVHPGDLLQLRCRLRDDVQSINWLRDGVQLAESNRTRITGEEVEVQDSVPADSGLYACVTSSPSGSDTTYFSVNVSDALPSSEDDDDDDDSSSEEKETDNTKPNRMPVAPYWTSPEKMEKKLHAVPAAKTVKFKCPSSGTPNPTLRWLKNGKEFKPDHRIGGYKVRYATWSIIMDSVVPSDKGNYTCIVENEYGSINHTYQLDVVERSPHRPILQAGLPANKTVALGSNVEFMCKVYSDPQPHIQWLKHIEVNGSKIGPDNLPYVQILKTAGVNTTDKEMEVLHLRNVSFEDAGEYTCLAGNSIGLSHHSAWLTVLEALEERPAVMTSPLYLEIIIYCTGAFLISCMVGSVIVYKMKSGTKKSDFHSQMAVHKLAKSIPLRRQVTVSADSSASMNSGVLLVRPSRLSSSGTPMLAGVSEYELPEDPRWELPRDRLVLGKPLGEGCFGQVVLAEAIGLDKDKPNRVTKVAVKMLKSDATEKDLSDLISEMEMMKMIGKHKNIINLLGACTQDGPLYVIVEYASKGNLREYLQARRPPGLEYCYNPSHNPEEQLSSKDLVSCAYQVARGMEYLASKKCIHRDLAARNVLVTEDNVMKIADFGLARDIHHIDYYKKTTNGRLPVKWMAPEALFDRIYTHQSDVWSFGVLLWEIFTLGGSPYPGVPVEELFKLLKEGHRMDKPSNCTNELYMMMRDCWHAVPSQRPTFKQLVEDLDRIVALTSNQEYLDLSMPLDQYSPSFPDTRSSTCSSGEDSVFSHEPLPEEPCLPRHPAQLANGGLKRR
T2 sequence (P22607 23-806, species assumed): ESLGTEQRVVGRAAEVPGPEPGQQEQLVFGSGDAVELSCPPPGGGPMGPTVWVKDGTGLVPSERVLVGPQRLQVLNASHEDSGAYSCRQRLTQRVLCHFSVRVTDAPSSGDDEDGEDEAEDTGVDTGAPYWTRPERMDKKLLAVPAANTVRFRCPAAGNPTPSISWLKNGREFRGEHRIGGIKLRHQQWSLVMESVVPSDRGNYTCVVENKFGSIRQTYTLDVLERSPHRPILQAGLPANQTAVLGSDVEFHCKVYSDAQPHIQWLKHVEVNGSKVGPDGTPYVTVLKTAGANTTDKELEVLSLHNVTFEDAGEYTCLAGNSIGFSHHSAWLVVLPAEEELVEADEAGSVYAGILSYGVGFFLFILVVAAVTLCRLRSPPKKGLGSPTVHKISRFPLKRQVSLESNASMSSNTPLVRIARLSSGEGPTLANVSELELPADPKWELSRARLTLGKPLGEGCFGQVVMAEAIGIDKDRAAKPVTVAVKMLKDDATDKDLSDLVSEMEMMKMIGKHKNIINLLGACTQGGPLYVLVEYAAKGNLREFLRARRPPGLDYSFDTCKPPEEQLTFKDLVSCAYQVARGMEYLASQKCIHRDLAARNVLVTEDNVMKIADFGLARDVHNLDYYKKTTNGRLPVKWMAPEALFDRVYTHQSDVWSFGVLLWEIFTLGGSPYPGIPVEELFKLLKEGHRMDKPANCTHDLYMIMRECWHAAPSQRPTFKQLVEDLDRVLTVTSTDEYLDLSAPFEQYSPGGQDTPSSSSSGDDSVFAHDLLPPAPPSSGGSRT
Usually IC50 stands for the midpoint of a concentration-inhibition curve. Regarding `CCN1CCN(Cc2ccc(Nc3ncnc4c(C(=O)Nc5c(Cl)c(OC)cc(OC)c5Cl)csc34)nc2)CC1` [Example 179, N-(2,6-dichloro-3,5-dimethoxyphenyl)-4-(5-((4-ethylpiperazin-1-yl)methyl)pyridin-2-ylamino)thieno[3,2-d]pyrimidine-7-carboxamide], the IC50 is 1 to 100 nM. On the same count and under the same terms, then `CCN(CC)CCOc1ccc(Nc2ncnc3c(C(=O)Nc4c(Cl)c(OC)cc(OC)c4Cl)csc23)cc1` [Example 196, N-(2,6-dichloro-3,5-dimethoxyphenyl)-4-(4-(2-(diethylamino)ethoxy)phenylamino) thieno[3,2-d]pyrimidine-7-carboxamide], with 100 to 500 nM; and `CCN1CCN(c2cccc(Nc3ncnc4c(C(=O)Nc5c(Cl)c(OC)cc(OC)c5Cl)csc34)c2)CC1` [Example 201, N-(2,6-dichloro-3,5-dimethoxyphenyl)-4-(3-(4-ethylpiperazin-1-yl)phenylamino) thieno[3,2-d]pyrimidine-7-carboxamide], with 100 to 500 nM.

Another assay addresses T2, FGFR3 (Homo sapiens, UniProt P22607).
T2 construct: purchased Upstate Company
In words: Inhibition of FGFR3 kinase (fluorescence polarization kinase assay). Format: biochemical. The conditions noted are these: Table 2, class symbols; read-out: FGFR3 IC50. The method, then: as §1, §2, §3, §4
For the molecule `COc1cc(OC)c(Cl)c(/C=C/c2csc3c(N)ncnc23)c1Cl` [Example 76, 7-(2,6-dichloro-3,5-dimethoxystyryl) thieno[3,2-d]pyrimidine-4-amine], the IC50 is 1000 to 5000 nM. On the same count and under the same terms, for `COc1cc(NC(=O)c2csc3c(N)ncnc23)c2ccoc2c1` [Example 113] the value was 1000 to 5000 nM; for `COc1cc(NC(=O)c2csc3c(Nc4ccccc4)ncnc23)c2ccoc2c1` [Example 114], 1000 to 5000 nM; for `CCN(CC)CCCCNc1ncnc2c(C(=O)Nc3c(Cl)c(OC)c(Br)c(OC)c3Cl)csc12` [Example 157, N-(4-bromo-2,6-dichloro-3,5-dimethoxyphenyl)-4-(4-(diethylamino)butyl-amino)thieno[3,2-d]pyrimidine-7-carboxamide], 1000 to 5000 nM. Turning to `COc1cc(OC)c(Cl)c(NC(=O)c2csc3c(NC4CC4)ncnc23)c1Cl` [Example 168, 4-(cyclopropylamino)-N-(2,6-dichloro-3,5-dimethoxyphenyl) thieno[3,2-d]pyrimidine-7-carboxamide], the IC50 was in the range of 1 to 100 nM. Same read-out and setting: for `CCN1CCN(CCCNc2ncnc3c(C(=O)Nc4c(Cl)c(OC)cc(OC)c4Cl)csc23)CC1` [Example 171, N-(2,6-dichloro-3,5-dimethoxyphenyl)-4-(3-(4-ethylpiperazin-1-yl)propylamino) thieno[3,2-d]pyrimidine-7-carboxamide] the value was 1000 to 5000 nM; for `COc1cc(OC)c(Cl)c(NC(=O)c2csc3c(Nc4ccc(C)cn4)ncnc23)c1Cl` [Example 178, N-(2,6-dichloro-3,5-dimethoxyphenyl)-4-(5-methylpyridin-2-ylamino)thieno[3,2-d]pyrimidine-7-carboxamide], 100 to 500 nM; for `CCN1CCN(Cc2ccc(Nc3ncnc4c(C(=O)Nc5c(Cl)c(OC)cc(OC)c5Cl)csc34)nc2)CC1` [Example 179, N-(2,6-dichloro-3,5-dimethoxyphenyl)-4-(5-((4-ethylpiperazin-1-yl)methyl)pyridin-2-ylamino)thieno[3,2-d]pyrimidine-7-carboxamide], 1 to 100 nM. On the same count and under the same terms, then `CCN1CCN(c2cc(Nc3ncnc4c(C(=O)Nc5c(Cl)c(OC)cc(OC)c5Cl)csc34)ncn2)CC1` [Example 182, N-(2,6-dichloro-3,5-dimethoxyphenyl)-4-(6-(4-ethylpiperazin-1-yl)pyrimidin-4-ylamino)thieno[3,2-d]pyrimidine-7-carboxamide], with 1 to 100 nM.

For `CCN(CC)CCOc1ccc(Nc2ncnc3c(C(=O)Nc4c(Cl)c(OC)cc(OC)c4Cl)csc23)cc1` [Example 196, N-(2,6-dichloro-3,5-dimethoxyphenyl)-4-(4-(2-(diethylamino)ethoxy)phenylamino) thieno[3,2-d]pyrimidine-7-carboxamide], the IC50 was in the range of 500 to 1000 nM. For the molecule `CCN1CCN(c2cccc(Nc3ncnc4c(C(=O)Nc5c(Cl)c(OC)cc(OC)c5Cl)csc34)c2)CC1` [Example 201, N-(2,6-dichloro-3,5-dimethoxyphenyl)-4-(3-(4-ethylpiperazin-1-yl)phenylamino) thieno[3,2-d]pyrimidine-7-carboxamide], the IC50 was 100 to 500 nM.

With `CCN1CCN(c2ccc(C(=O)Nc3ncnc4c(C(=O)Nc5c(Cl)c(OC)c(Br)c(OC)c5Cl)csc34)cc2)CC1` [Example 203, N-(4-bromo-2,6-dichloro-3,5-dimethoxyphenyl)-4-(4-(4-ethylpiperazin-1-yl)benzamido)thieno[3,2-d]pyrimidine-7-carboxamide], the concentration for half-maximal inhibition (IC50) fell in the range of 1000 to 5000 nM.

`CCN1CCN(c2ccc(C(=O)Nc3ncnc4c(C(=O)Nc5c(Cl)c(OC)cc(OC)c5Cl)csc34)cc2)CC1` [Example 204, N-(2,6-dichloro-3,5-dimethoxyphenyl)-4-(4-(4-ethylpiperazin-1-yl)benzamido)thieno[3,2-d]pyrimidine-7-carboxamide]: the IC50 lay in the range of 100 to 500 nM.

For the molecule `COc1cc(OC)c(Cl)c(NC(=O)c2csc3c(NS(C)(=O)=O)ncnc23)c1Cl` [Example 206, N-(2,6-dichloro-3,5-dimethoxyphenyl)-4-(methylsulfonamido) thieno[3,2-d]pyrimidine-7-carboxamide], the IC50 lay in the range of 1000 to 5000 nM.

For `COc1cc(OC)c(Cl)c(NC(=O)c2csc3c(Nc4cc(NCCN5CCOCC5)ncn4)ncnc23)c1Cl` [Example 208, N-(2,6-dichloro-3,5-dimethoxyphenyl)-4-(6-(2-morpholinoethyl-amino)pyrimidin-4-ylamino)thieno[3,2-d]pyrimidine-7-carboxamide], the IC50 was 1 to 100 nM. Consider `COc1cc(OC)c(Cl)c(NC(=O)c2csc3c(Nc4cc(OCCN(C)C)ncn4)ncnc23)c1Cl` [Example 209, N-(2,6-dichloro-3,5-dimethoxyphenyl)-4-(6-(2-(dimethylamino)eth-oxy)pyrimidin-4-ylamino)thieno[3,2-d]pyrimidine-7-carboxamide], for which the IC50 lay within 100 to 500 nM. On the same count and under the same terms, for `COc1cc(OC)c(Cl)c(NC(=O)c2csc3c(Nc4ccc(C(=O)N5CCOCC5)cn4)ncnc23)c1Cl` [Example 255, N-(2,6-dichloro-3,5-dimethoxyphenyl)-4-(5-(morpholine-4-carbonyl)pyridin-2-ylamino)thieno[3,2-d]pyrimidine-7-carboxamide] the value was 1 to 100 nM.

On to `COc1cc(OC)c(Cl)c(NC(=O)c2csc3c(Nc4ccc(CC(=O)N5CCOCC5)cn4)ncnc23)c1Cl` [Example 257, N-(2,6-dichloro-3,5-dimethoxyphenyl)-4-(5-(2-morpholino-2-oxoethyl)pyridin-2-ylamino)thieno[3,2-d]pyrimidine-7-carboxamide], for which the IC50 was in the range of 1 to 100 nM. On the same count and under the same terms, for `COc1cc(OC)c(Cl)c(NC(=O)c2csc3c(Nc4ccc(CN5CCCC(C(F)(F)F)C5)cn4)ncnc23)c1Cl` (stereo not drawn) [Example 259, N-(2,6-dichloro-3,5-dimethoxyphenyl)-4-(5-((3-(trifluoromethyl)piperidin-1-yl)methyl)pyridin-2-ylamino)thieno[3,2-d]pyrimidine-7-carboxamide] the value was 1000 to 5000 nM; for `COc1cc(OC)c(Cl)c(NC(=O)c2csc3c(Nc4ccc(CN5CCNC(=O)C5)cn4)ncnc23)c1Cl` [Example 263, N-(2,6-dichloro-3,5-dimethoxyphenyl)-4-(5-((3-oxopiperazin-1-yl)methyl)pyridin-2-ylamino)thieno[3,2-d]pyrimidine-7-carboxamide], 1 to 100 nM; for `COc1cc(OC)c(Cl)c(NC(=O)c2csc3c(Nc4ccc(C(=O)NN5CCN(C)CC5)cn4)ncnc23)c1Cl` [Example 268, N-(2,6-dichloro-3,5-dimethoxyphenyl)-4-(5-(4-methylpiperazin-1-ylcarbamoyl)pyridin-2-ylamino)thieno[3,2-d]pyrimidine-7-carboxamide], 1 to 100 nM. On the same count and under the same terms, then `COc1cc(OC)c(Cl)c(NC(=O)c2csc3c(Nc4cc(C)ccn4)ncnc23)c1Cl` [Example 270, N-(2,6-dichloro-3,5-dimethoxyphenyl)-4-(4-methylpyridin-2-ylamino)thieno[3,2-d]pyrimidine-7-carboxamide], with 1 to 100 nM; and `CCN(CC)Cc1cccc(Nc2ncnc3c(C(=O)Nc4c(Cl)c(OC)cc(OC)c4Cl)csc23)n1` [Example 273, N-(2,6-dichloro-3,5-dimethoxyphenyl)-4-(6-((diethylamino)methyl)pyridin-2-ylamino)thieno[3,2-d]pyrimidine-7-carboxamide], with 1000 to 5000 nM. Same read-out and setting: for `COc1cc(OC)c(Cl)c(NC(=O)c2csc3c(Nc4ccc(C(N)=O)cn4)ncnc23)c1Cl` [Example 274, 4-(5-carbamoylpyridin-2-ylamino)-N-(2,6-dichloro-3,5-dimethoxyphenyl) thieno[3,2-d]pyrimidine-7-carboxamide] the value was 1 to 100 nM. With `COc1c(Cl)c(NC(=O)c2csc3c(Nc4ccc(F)c(Cl)c4)ncnc23)c(Cl)c(OC)c1Br` [Example 287, N-(4-bromo-2,6-dichloro-3,5-dimethoxyphenyl)-4-(3-chloro-4-fluorophenylamino) thieno[3,2-d]pyrimidine-7-carboxamide], the IC50 is 1000 to 5000 nM. Still for that read-out and setting: then `COc1cc(OC)c(Cl)c(NC(=O)c2csc3c(Nc4cc(CN5CCSC5)ccn4)ncnc23)c1Cl` [Example 291, N-(2,6-dichloro-3,5-dimethoxyphenyl)-4-(4-(thiazolidin-3-ylmethyl)pyridin-2-ylamino)thieno[3,2-d]pyrimidine-7-carboxamide], with 1 to 100 nM; and `CCN(CC)C(=O)Cc1ccnc(Nc2ncnc3c(C(=O)Nc4c(Cl)c(OC)cc(OC)c4Cl)csc23)c1` [Example 292, N-(2,6-dichloro-3,5-dimethoxyphenyl)-4-(4-(2-(diethylamino)-2-oxoethyl)pyridin-2-ylamino)thieno[3,2-d]pyrimidine-7-carboxamide], with 1 to 100 nM.

The values are drawn from patent publication US10112954B2, “Bicyclic heteroaryl derivatives having inhibitory activity for protein kinase” (HANMI PHARM. CO., LTD., priority 2010, dated 2018).
